Assay results taken from patent publication US20230019491A1, “PYRIMIDINE TBK/IKKe INHIBITOR COMPOUNDS AND USES THEREOF” (Merck Patent GmbH, priority 2017, published 2023).
Where a name gives a salt, the structure may show the parent alone.

Columns and labels:
[1] = biological target: T1, TBK1 (Homo sapiens, UniProt Q9UHD2); test: TBK biochemical assay; settings: 10 point 1:4 dose response, 30 uM top concentration, 90 min at 25° C., LabChip EZ Reader II; read-out: TBK1_IC50
T1 sequence (Q9UHD2 1-729): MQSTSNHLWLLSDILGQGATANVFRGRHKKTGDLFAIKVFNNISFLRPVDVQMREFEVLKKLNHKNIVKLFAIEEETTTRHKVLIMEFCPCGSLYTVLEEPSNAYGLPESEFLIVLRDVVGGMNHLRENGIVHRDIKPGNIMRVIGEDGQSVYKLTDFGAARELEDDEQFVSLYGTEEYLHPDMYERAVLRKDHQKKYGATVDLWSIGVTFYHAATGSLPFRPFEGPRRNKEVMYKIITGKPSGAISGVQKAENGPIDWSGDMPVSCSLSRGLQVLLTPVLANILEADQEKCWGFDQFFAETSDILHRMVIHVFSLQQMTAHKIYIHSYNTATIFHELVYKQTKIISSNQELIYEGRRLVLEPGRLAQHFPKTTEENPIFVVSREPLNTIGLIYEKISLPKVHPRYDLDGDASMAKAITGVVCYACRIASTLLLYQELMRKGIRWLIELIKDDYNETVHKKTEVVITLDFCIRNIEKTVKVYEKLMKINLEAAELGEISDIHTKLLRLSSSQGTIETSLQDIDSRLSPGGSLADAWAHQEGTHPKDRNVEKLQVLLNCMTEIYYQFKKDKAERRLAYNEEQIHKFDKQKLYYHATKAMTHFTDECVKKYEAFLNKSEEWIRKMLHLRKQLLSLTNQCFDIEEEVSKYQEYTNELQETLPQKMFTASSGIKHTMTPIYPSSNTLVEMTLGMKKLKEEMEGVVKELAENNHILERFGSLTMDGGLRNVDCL
Method in brief: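 Substrate and product were separated and quantified by microfluidic mobility-shift read (LabChip). 10 uM staurosporine served as the full-inhibition control, and the reference compound was tested from 1 uM final.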

[2] = biological target: T2, IKKε (Homo sapiens, UniProt Q14164); test: IKKε biochemical assay; settings: 10 point 1:4 dose response, 30 uM top concentration, 90 min at 25° C., LabChip EZ Reader II; read-out: IKKε_IC50
T2 sequence (Q14164 1-716): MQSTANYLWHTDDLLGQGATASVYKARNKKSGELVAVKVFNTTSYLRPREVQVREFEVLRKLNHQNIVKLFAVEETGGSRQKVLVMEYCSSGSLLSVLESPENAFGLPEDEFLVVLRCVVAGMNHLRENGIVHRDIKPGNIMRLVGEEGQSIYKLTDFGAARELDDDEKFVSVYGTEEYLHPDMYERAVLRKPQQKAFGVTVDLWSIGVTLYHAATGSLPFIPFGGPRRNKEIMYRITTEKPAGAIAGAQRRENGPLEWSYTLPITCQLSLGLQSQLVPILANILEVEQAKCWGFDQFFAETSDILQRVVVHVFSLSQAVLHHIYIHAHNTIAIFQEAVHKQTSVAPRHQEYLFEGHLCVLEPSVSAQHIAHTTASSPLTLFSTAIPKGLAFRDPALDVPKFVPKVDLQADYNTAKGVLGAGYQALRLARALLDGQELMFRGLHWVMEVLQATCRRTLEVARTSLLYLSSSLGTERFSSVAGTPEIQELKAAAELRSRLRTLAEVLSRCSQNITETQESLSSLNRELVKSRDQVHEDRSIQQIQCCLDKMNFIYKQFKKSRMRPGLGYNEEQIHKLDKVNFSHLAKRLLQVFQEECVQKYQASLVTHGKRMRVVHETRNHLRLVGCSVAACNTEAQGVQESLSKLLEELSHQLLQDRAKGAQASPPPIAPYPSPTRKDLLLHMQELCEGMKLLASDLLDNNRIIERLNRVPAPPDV
Method in brief: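 Compounds in 1% DMSO final were incubated with IKKε enzyme and substrate at 25° C. for 90 min, then stopped. Substrate and product peaks were resolved by LabChip EZ Reader II mobility-shift read-out. Staurosporine at 10 uM final served as the full-inhibition control.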

COc1nc(Nc2nccc(-c3ccc(OC4CCN(C(=O)C(C)O)CC4(F)F)c(C#N)c3)n2)ccc1N1CCN(C2COC2)CC1 (stereo in doubt) [Example 261, 2-([3,3-difluoro-1-[(2S)-2-hydroxypropanoyl]piperidin-4-yl]oxy)-5-[2-([6-methoxy-5-[4-(oxetan-3-yl)piperazin-1-yl]pyridin-2-yl]amino)pyrimidin-4-yl]benzonitrile]
IC50 [1]: < 100 nM | IC50 [2]: < 100 nM

COc1cc(Nc2nccc(-c3ccc(OC4CCOCC4)c(C#N)c3)n2)ncc1N1CCN(C)CC1 [Example 53, 5-(2-[[4-methoxy-5-(4-methylpiperazin-1-yl)pyridin-2-yl]amino]pyrimidin-4-yl)-2-(oxan-4-yloxy)benzonitrile hydrochloride]
IC50 [1]: 100 to 1000 nM | IC50 [2]: 100 to 1000 nM

COc1nc(Nc2nccc(-c3ccc(OC4CCOCC4)c(C#N)c3)n2)ccc1N1CCN(C(C)=O)CC1 [Example 168, 5-(2-[[5-(4-acetylpiperazin-1-yl)-6-methoxypyridin-2-yl]amino]pyrimidin-4-yl)-2-(oxan-4-yloxy)benzonitrile]
IC50 [1]: < 100 nM | IC50 [2]: < 100 nM

COc1nc(Nc2nccc(-c3ccc(OC4CCNCC4C)c(C#N)c3)n2)ccc1N1CCN(C2COC2)CC1 (centres unmarked) [Example 270, 5-{2-[6-Methoxy-5-(4-oxetan-3-yl-piperazin-1-yl)-pyridin-2-ylamino]-pyrimidin-4-yl}-2-(3-methyl-piperidin-4-yloxy)-benzonitrile]
IC50 [1]: < 100 nM | IC50 [2]: < 100 nM

COc1nc(Nc2nccc(-c3ccc(O[C@H]4CCN(C(=O)[C@@H](C)O)C[C@@H]4F)c(C#N)c3)n2)ccc1C1CCN(C2COC2)CC1 [Example 188, 2-[(3S,4S)-3-Fluoro-1-((R)-2-hydroxy-propionyl)-piperidin-4-yloxy]-5-[2-(2-methoxy-1′-oxetan-3-yl-1′,2′,3′,4′,5′,6′-hexahydro-[3,4′]bipyridinyl-6-ylamino)-pyrimidin-4-yl]-benzonitrile]
IC50 [1]: < 100 nM | IC50 [2]: < 100 nM

COc1nc(Nc2nccc(-c3ccc(OC4CCOCC4)c(C#N)c3)n2)ccc1C(=O)N(C)CCO [Example 3, 6-([4-[3-cyano-4-(oxan-4-yloxy)phenyl]pyrimidin-2-yl]amino)-N-(2-hydroxyethyl)-2-methoxy-N-methylpyridine-3-carboxamide]
IC50 [1]: < 100 nM | IC50 [2]: < 100 nM

COc1nc(Nc2nccc(-c3ccc(OC4CCOCC4)c(C#N)c3)n2)ccc1C(=O)N1CC2COCC2C1 (centres unmarked) [Example 12, 5-(2-[[5-([hexahydro-1H-furo[3,4-c]pyrol-5-yl]carbonyl)-6-methoxypyridin-2-yl]amino]pyrimidin-4-yl)-2-(oxan-4-yloxy)benzonitrile]
IC50 [1]: < 100 nM | IC50 [2]: < 100 nM

COc1cc(Nc2nccc(-c3ccc(OC4CCN(C(=O)C(C)O)CC4(F)F)c(C#N)c3)n2)ccn1 (stereo in doubt) [Example 327, 2-([3,3-difluoro-1-[(2S)-2-hydroxypropanoyl]piperidin-4-yl]oxy)-5-[2-[(2-methoxypyridin-4-yl)amino]pyrimidin-4-yl]benzonitrile]
IC50 [1]: < 100 nM | IC50 [2]: < 100 nM

COc1nc(Nc2nccc(-c3ccc(OC4CCN(C(=O)[C@@H]5CC5(F)F)CC4(F)F)c(C#N)c3)n2)ccc1N1CCN(C2COC2)CC1 (stereo partly drawn) [Example 255, 2-[1-((S)-2,2-Difluoro-cyclopropanecarbonyl)-3,3-difluoro-piperidin-4-yloxy]-5-{2-[6-methoxy-5-(4-oxetan-3-yl-piperazin-1-yl)-pyridin-2-ylamino]-pyrimidin-4-yl}-benzonitrile]
IC50 [1]: < 100 nM | IC50 [2]: < 100 nM

C[C@@H](O)C(=O)N1CC[C@H](Oc2ccc(-c3ccnc(Nc4ccc(N5CCN(C6COC6)CC5)cc4)n3)cc2C#N)C(F)(F)C1 [Example 142, 2-[[(4S)-3,3-difluoro-1-[(2R)-2-hydroxypropanoyl]piperidin-4-yl]oxy]-5-[2-([4-[4-(oxetan-3-yl)piperazin-1-yl]phenyl]amino)pyrimidin-4-yl]benzonitrile]
IC50 [1]: < 100 nM | IC50 [2]: < 100 nM

N#Cc1cc(-c2ccnc(Nc3cccc(C4CCN(C5COC5)CC4)c3)n2)ccc1OC1CCN(C(=O)CO)CC1(F)F (centres unmarked) [Example 223, 2-[3,3-Difluoro-1-(2-hydroxy-acetyl)-piperidin-4-yloxy]-5-{2-[3-(1-oxetan-3-yl-piperidin-4-yl)-phenylamino]-pyrimidin-4-yl}-benzonitrile]
IC50 [1]: < 100 nM | IC50 [2]: < 100 nM

C[C@@H](O)C(=O)N1CCC(Oc2ccc(-c3ccnc(Nc4ccc(N5CCN(C6COC6)CC5)cc4)n3)cc2C#N)C(F)(F)C1 (stereo partly drawn) [Example 141, 2-([3,3-difluoro-1-[(2R)-2-hydroxypropanoyl]piperidin-4-yl]oxy)-5-[2-([4-[4-(oxetan-3-yl)piperazin-1-yl]phenyl]amino)pyrimidin-4-yl]benzonitrile]
IC50 [1]: < 100 nM | IC50 [2]: < 100 nM

COc1nc(Nc2nccc(-c3ccc(O[C@H]4CCN(C(=O)CO)C[C@H]4F)c(C#N)c3)n2)ccc1C(=O)N(C)C [Example 75, 6-[[4-(3-cyano-4-[[(3R,4S)-3-fluoro-1-(2-hydroxyacetyl)piperidin-4-yl]oxy]phenyl)pyrimidin-2-yl]amino]-2-methoxy-N,N-dimethylpyridine-3-carboxamide hydrochloride]
IC50 [1]: < 100 nM | IC50 [2]: < 100 nM

CN1CCN(c2ccc(Nc3nccc(-c4ccc(OC5CN(C)C5)c(C#N)c4)n3)nc2)CC1 [Example 81, 2-[(1-methylazetidin-3-yl)oxy]-5-(2-[[5-(4-methylpiperazin-1-yl)pyridin-2-yl]amino]pyrimidin-4-yl)benzonitrile]
IC50 [1]: 1000 to 5000 nM | IC50 [2]: 1000 to 5000 nM

COc1nc(Nc2ncc(C)c(-c3ccc(O[C@@H]4CCN(C(=O)[C@H](C)O)CC4(F)F)c(C#N)c3)n2)ccc1N1CCN(C2COC2)CC1 [Example 285, 2-[[(4R)-3,3-difluoro-1-[(2S)-2-hydroxypropanoyl]piperidin-4-yl]oxy]-5-[2-([6-methoxy-5-[4-(oxetan-3-yl)piperazin-1-yl]pyridin-2-yl]amino)-5-methylpyrimidin-4-yl]benzonitrile]
IC50 [1]: 100 to 1000 nM | IC50 [2]: 100 to 1000 nM

COc1cc(Nc2nccc(-c3ccc(OC4CCOCC4)c(C#N)c3)n2)cnc1N1CCN(C)CC1 [Example 54, 5-(2-[[5-methoxy-6-(4-methylpiperazin-1-yl)pyridin-3-yl]amino]pyrimidin-4-yl)-2-(oxan-4-yloxy)benzonitrile]
IC50 [1]: < 100 nM | IC50 [2]: < 100 nM

COc1nc(Nc2ncc(F)c(-c3ccc(OC4CCOCC4)c(C#N)c3)n2)ccc1N1CCN(C)CC1 [Example 67, 5-{5-Fluoro-2-[6-methoxy-5-(4-methyl-piperazin-1-yl)-pyridin-2-ylamino]-pyrimidin-4-yl}-2-(tetrahydro-pyran-4-yloxy)-benzonitrile]
IC50 [1]: < 100 nM | IC50 [2]: < 100 nM

COc1nc(Nc2nccc(-c3ccc(OC4CCN(C(=O)[C@@H](C)CO)CC4(F)F)c(C#N)c3)n2)ccc1N1CCN(C2COC2)CC1 (stereo partly drawn) [Example 252, 2-[3,3-Difluoro-1-((S)-3-hydroxy-2-methyl-propionyl)-piperidin-4-yloxy]-5-{2-[6-methoxy-5-(4-oxetan-3-yl-piperazin-1-yl)-pyridin-2-ylamino]-pyrimidin-4-yl}-benzonitrile]
IC50 [1]: < 100 nM | IC50 [2]: < 100 nM

COc1cc(Nc2nccc(-c3cc(C#N)c(OC4CCOCC4)cn3)n2)cnc1N1CCN(C)CC1 [Example 56, 2-(2-[[5-methoxy-6-(4-methylpiperazin-1-yl)pyridin-3-yl]amino]pyrimidin-4-yl)-5-(oxan-4-yloxy)pyridine-4-carbonitrile]
IC50 [1]: 100 to 1000 nM | IC50 [2]: 100 to 1000 nM
